From publication PMC2585998 (Molecular cell, 2008) come the findings set out here.

The assay deals with SpoIVA (IVA; His6-SpoIVA) (Bacillus subtilis, UniProt P35149, K30A). Briefly: ATPase, ADP production by TLC of alpha-32P-ATP. It counts as biochemical. To be noted: Walker A mutant, diminished hydrolysis; 10 mM MgCl2, pH 7.5, 37 C.
SpoIVA (IVA; His6-SpoIVA), sequence (P35149 whole entry K30A): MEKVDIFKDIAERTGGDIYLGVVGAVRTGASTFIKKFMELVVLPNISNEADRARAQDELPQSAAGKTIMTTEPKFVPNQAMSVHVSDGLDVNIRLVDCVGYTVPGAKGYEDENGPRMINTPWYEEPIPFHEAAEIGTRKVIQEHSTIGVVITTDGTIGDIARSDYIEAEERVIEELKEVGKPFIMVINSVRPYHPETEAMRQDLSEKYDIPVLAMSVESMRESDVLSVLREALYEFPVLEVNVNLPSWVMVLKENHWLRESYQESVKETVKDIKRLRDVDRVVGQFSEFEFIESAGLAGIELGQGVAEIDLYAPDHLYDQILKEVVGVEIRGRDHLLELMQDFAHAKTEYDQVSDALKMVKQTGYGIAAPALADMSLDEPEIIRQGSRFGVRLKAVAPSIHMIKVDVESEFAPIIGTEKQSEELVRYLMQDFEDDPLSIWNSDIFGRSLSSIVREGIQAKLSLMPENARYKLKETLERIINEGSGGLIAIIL

On to `Nc1ncnc2c1ncn2[C@@H]1O[C@H](COP(=O)(O)OP(=O)(O)OP(=O)(O)O)[C@@H](O)[C@H]1O` [ATP], for which the “ATPase, ADP production by TLC of alpha-32P-ATP” value is “Incubation of ATP with IVA^K30A, in contrast, led to the diminished accumulation of ADP”.
